Broadly, the GI50 is the concentration at which growth is held to half of that of the control.

This passage reports GI50 results from patent publication US11535629B2, “Dioxoloisoquinolinone derivatives and use thereof” (HANMI PHARMACEUTICAL CO., LTD., priority 2020, dated 2022).

The subject of the assay is KARPAS-422 cells. The assay can be described thus: Cell growth inhibition test (CTG method). Type of assay: cell-based. To be noted: Homo sapiens, KARPAS-422, 168 h, KARPAS-422 (EZH2^Y641N mutant), culturing for 7 days; read-out: Cell growth inhibitory activity (GI50, nM) KARPAS-422 (EZH2^Y641N mutant). The procedure:
The cultured cell strain was prepared at 1.8×10^4 cells/400 μL and placed in a 48-well plate.

For `Cc1cc(C)c(CN2CCc3c(c(C)c4c(c3-c3ccc(F)nc3)O[C@](C)([C@H]3CC[C@H](N(C)C)CC3)O4)C2=O)c(=O)[nH]1` [Compound 36, (R)-6-((4,6-dimethyl-2-oxo-1,2-dihydropyridin-3-yl)methyl)-2-(trans-4-(dimethylamino)cyclohexyl)-9-(6-fluoropyridin-3-yl)-2,4-dimethyl-7,8-dihydro-[1,3]dioxolo[4,5-g]isoquinolin-5(6H)-one], the GI50 worked out at 5.8 nM.

On to `Cc1cc(C)c(CN2CCc3c(c(C)c4c(c3-c3ccc(F)nc3)O[C@@](C)([C@H]3CC[C@H](N(C)C)CC3)O4)C2=O)c(=O)[nH]1` [Compound 37, (S)-6-((4,6-dimethyl-2-oxo-1,2-dihydropyridin-3-yl)methyl)-2-(trans-4-(dimethylamino)cyclohexyl)-9-(6-fluoropyridin-3-yl)-2,4-dimethyl-7,8-dihydro-[1,3]dioxolo[4,5-g]isoquinolin-5(6H)-on], for which the GI50 was more than 1000 nM.

Turning to `Cc1cc(C)c(CN2CCc3c(c(C)c4c(c3-c3cnn(C)c3)O[C@](C)([C@H]3CC[C@H](N(C)C)CC3)O4)C2=O)c(=O)[nH]1` [Compound 38, (R)-6-((4,6-dimethyl-2-oxo-1,2-dihydropyridin-3-yl)methyl)-2-(trans-4-(dimethylamino)cyclohexyl)-2,4-dimethyl-9-(1-methyl-1H-pyrazol-4-yl)-7,8-dihydro-[1,3]dioxolo[4,5-g]isoquinolin-5(6H)-on], the GI50 came out at 5.8 nM.

With `Cc1cc(C)c(CN2CCc3c(c(C)c4c(c3-c3cnn(C)c3)O[C@@](C)([C@H]3CC[C@H](N(C)C)CC3)O4)C2=O)c(=O)[nH]1` [Compound 39, (S)-6-((4,6-dimethyl-2-oxo-1,2-dihydropyridin-3-yl)methyl)-2-(trans-4-(dimethylamino)cyclohexyl)-2,4-dimethyl-9-(1-methyl-1H-pyrazol-4-yl)-7,8-dihydro-[1,3]dioxolo[4,5-g]isoquinolin-5(6H)-one], the GI50 was more than 1000 nM.

For the compound `Cc1cc(C)c(CN2CCc3c(c(C)c4c(c3-c3ccc(C)o3)O[C@@](C)([C@H]3CC[C@H](N(C)C)CC3)O4)C2=O)c(=O)[nH]1` [Compound 41, (S)-6-((4,6-dimethyl-2-oxo-1,2-dihydropyridin-3-yl)methyl)-2-(trans-4-(dimethylamino)cyclohexyl)-2,4-dimethyl-9-(5-methylfuran-2-yl)-7,8-dihydro-[1,3]dioxolo[4,5-g]isoquinolin-5(6H)-one], the concentration for 50% growth inhibition (GI50) was more than 1000 nM.

With `Cc1cc(C)c(CN2CCc3c(c(C)c4c(c3-c3ccc(C)s3)O[C@](C)([C@H]3CC[C@H](N(C)C)CC3)O4)C2=O)c(=O)[nH]1` [Compound 42, (R)-6-((4,6-dimethyl-2-oxo-1,2-dihydropyridin-3-yl)methyl)-2-(trans-4-(dimethylamino)cyclohexyl)-2,4-dimethyl-9-(5-methylthiophen-2-yl)-7,8-dihydro-[1,3]dioxolo[4,5-g]isoquinolin-5(6H)-one], the GI50 is 5.7 nM.

As for `Cc1cc(C)c(CN2CCc3c(c(C)c4c(c3-c3ccc(C)s3)O[C@@](C)([C@H]3CC[C@H](N(C)C)CC3)O4)C2=O)c(=O)[nH]1` [Compound 43, (S)-6-((4,6-dimethyl-2-oxo-1,2-dihydropyridin-3-yl)methyl)-2-(trans-4-(dimethylamino)cyclohexyl)-2,4-dimethyl-9-(5-methylthiophen-2-yl)-7,8-dihydro-[1,3]dioxolo[4,5-g]isoquinolin-5(6H)-one], the GI50 was more than 1000 nM.

Take `Cc1cc(C)c(CN2CCc3c(c(C)c4c(c3-c3cccnc3)O[C@@](C)([C@H]3CC[C@H](N(C)C)CC3)O4)C2=O)c(=O)[nH]1` [Compound 45, (S)-6-((4,6-dimethyl-2-oxo-1,2-dihydropyridin-3-yl)methyl)-2-(trans-4-(dimethylamino)cyclohexyl)-2,4-dimethyl-9-(pyridin-3-yl)-7,8-dihydro-[1,3]dioxolo[4,5-g]isoquinolin-5(6H)-one]: the concentration for 50% growth inhibition (GI50) is more than 1000 nM.

Regarding `Cc1cc(C)c(CN2CCc3c(c(C)c4c(c3-c3cncnc3)O[C@](C)([C@H]3CC[C@H](N(C)C)CC3)O4)C2=O)c(=O)[nH]1` [Compound 46, (R)-6-((4,6-dimethyl-2-oxo-1,2-dihydropyridin-3-yl)methyl)-2-(trans-4-(dimethylamino)cyclohexyl)-2,4-dimethyl-9-(pyrimidin-5-yl)-7,8-dihydro-[1,3]dioxolo[4,5-g]isoquinolin-5(6H)-one], the GI50 is 7 nM.

For the compound `Cc1cc(C)c(CN2CCc3c(c(C)c4c(c3-c3cncnc3)O[C@@](C)([C@H]3CC[C@H](N(C)C)CC3)O4)C2=O)c(=O)[nH]1` [Compound 47, (S)-6-((4,6-dimethyl-2-oxo-1,2-dihydropyridin-3-yl)methyl)-2-(trans-4-(dimethylamino)cyclohexyl)-2,4-dimethyl-9-(pyrimidin-5-yl)-7,8-dihydro-[1,3]dioxolo[4,5-g]isoquinolin-5(6H)-one], the GI50 was more than 1000 nM.

Take `Cc1cc(C)c(CN2CCc3c(c(C)c4c(c3-c3cccn3C)O[C@@](C)([C@H]3CC[C@H](N(C)C)CC3)O4)C2=O)c(=O)[nH]1` [Compound 49, (S)-6-((4,6-dimethyl-2-oxo-1,2-dihydropyridin-3-yl)methyl)-2-(trans-4-(dimethylamino)cyclohexyl)-2,4-dimethyl-9-(1-methyl-1H-pyrrol-2-yl)-7,8-dihydro-[1,3]dioxolo[4,5-g]isoquinolin-5 (6H)-one]: the GI50 was more than 1000 nM.

Turning to `Cc1cc(C)c(CN2CCc3c(c(C)c4c(c3-c3ccsc3)O[C@@](C)([C@H]3CC[C@H](N(C)C)CC3)O4)C2=O)c(=O)[nH]1` [Compound 51, (S)-6-((4,6-dimethyl-2-oxo-1,2-dihydropyridin-3-yl)methyl)-2-(trans-4-(dimethylamino)cyclohexyl)-2,4-dimethyl-9-(thiophen-3-yl)-7,8-dihydro-[1,3]dioxolo[4,5-g]isoquinolin-5(6H)-one], the 50% growth inhibitory concentration (GI50) was more than 1000 nM.

As for `Cc1cc(C)c(CN2CCc3c(c(C)c4c(c3-c3cncs3)O[C@@](C)([C@H]3CC[C@H](N(C)C)CC3)O4)C2=O)c(=O)[nH]1` [Compound 53, (S)-6-((4,6-dimethyl-2-oxo-1,2-dihydropyridin-3-yl)methyl)-2-(trans-4-(dimethylamino)cyclohexyl)-2,4-dimethyl-9-(thiazol-5-yl)-7,8-dihydro-[1,3]dioxolo[4,5-g]isoquinolin-5(6H)-one], the GI50 is more than 1000 nM.

Take `Cc1cc(C)c(CN2CCc3c(c(C)c4c(c3-n3ccnc3)O[C@](C)([C@H]3CC[C@H](N(C)C)CC3)O4)C2=O)c(=O)[nH]1` [Compound 54, (R)-6-((4,6-dimethyl-2-oxo-1,2-dihydropyridin-3-yl)methyl)-2-(trans-4-(dimethylamino)cyclohexyl)-9-(1H-Imidazol-1-yl)-2,4-dimethyl-7,8-dihydro-[1,3]dioxolo[4,5-g]isoquinolin-5(6H)-one]: the GI50 was found to be 28 nM.

In the case of `Cc1cc(C)c(CN2CCc3c(c(C)c4c(c3-n3ccnc3)O[C@@](C)([C@H]3CC[C@H](N(C)C)CC3)O4)C2=O)c(=O)[nH]1` [Compound 55, (S)-6-((4,6-dimethyl-2-oxo-1,2-dihydropyridin-3-yl)methyl)-2-(trans-4-(dimethylamino)cyclohexyl)-9-(1H-imidazol-1-yl)-2,4-dimethyl-7,8-dihydro-[1,3]dioxolo[4,5-g]isoquinolin-5(6H)-one], the GI50 is more than 1000 nM.

On to `Cc1cc(C)c(CN2CCc3c(c(C)c4c(c3-c3ccoc3)O[C@](C)([C@H]3CC[C@H](N(C)C)CC3)O4)C2=O)c(=O)[nH]1` [Compound 56, (R)-6-((4,6-dimethyl-2-oxo-1,2-dihydropyridin-3-yl)methyl)-2-(trans-4-(dimethylamino)cyclohexyl)-9-(furan-3-yl)-2,4-dimethyl-7,8-dihydro-[1,3]dioxolo[4,5-g]isoquinolin-5(6H)-one], for which the GI50 turned out to be 7.2 nM.

For the compound `Cc1cc(C)c(CN2CCc3c(c(C)c4c(c3-c3ccoc3)O[C@@](C)([C@H]3CC[C@H](N(C)C)CC3)O4)C2=O)c(=O)[nH]1` [Compound 57, (S)-6-((4,6-dimethyl-2-oxo-1,2-dihydropyridin-3-yl)methyl)-2-(trans-4-(dimethylamino)cyclohexyl)-9-(furan-3-yl)-2,4-dimethyl-7,8-dihydro-[1,3]dioxolo[4,5-g]isoquinolin-5(6H)-one], the GI50 was more than 1000 nM.

For the compound `Cc1cc(C)c(CN2CCc3c(c(C)c4c(c3-c3ccco3)O[C@](C)([C@H]3CC[C@H](N)CC3)O4)C2=O)c(=O)[nH]1` [Compound 58, (R)-2-(trans-4-aminocyclohexyl)-6-((4,6-dimethyl-2-oxo-1,2-dihydropyridin-3-yl)methyl)-9-(furan-2-yl)-2,4-dimethyl-7,8-dihydro-[1,3]dioxolo[4,5-g]isoquinolin-5(6H)-one], the concentration for 50% growth inhibition (GI50) was 28 nM.

As for `Cc1cc(C)c(CN2CCc3c(c(C)c4c(c3-c3ccco3)O[C@@](C)([C@H]3CC[C@H](N)CC3)O4)C2=O)c(=O)[nH]1` [Compound 59, (S)-2-(trans-4-aminocyclohexyl)-6-((4,6-dimethyl-2-oxo-1,2-dihydropyridin-3-yl)methyl)-9-(furan-2-yl)-2,4-dimethyl-7,8-dihydro-[1,3]dioxolo[4,5-g]isoquinolin-5(6H)-one], the GI50 was more than 1000 nM.

As for `CN[C@H]1CC[C@H]([C@]2(C)Oc3c(C)c4c(c(-c5ccco5)c3O2)CCN(Cc2c(C)cc(C)[nH]c2=O)C4=O)CC1` [Compound 60, (R)-6-((4,6-dimethyl-2-oxo-1,2-dihydropyridin-3-yl)methyl)-9-(furan-2-yl)-2,4-dimethyl-2-(trans-4-(methylamino)cyclohexyl)-7,8-dihydro-[1,3]dioxolo[4,5-g]isoquinolin-5(6H)-one], the GI50 was 19 nM.

Take `CN[C@H]1CC[C@H]([C@@]2(C)Oc3c(C)c4c(c(-c5ccco5)c3O2)CCN(Cc2c(C)cc(C)[nH]c2=O)C4=O)CC1` [Compound 61, (S)-6-((4,6-dimethyl-2-oxo-1,2-dihydropyridin-3-yl)methyl)-9-(furan-2-yl)-2,4-dimethyl-2-(trans-4-(methylamino)cyclohexyl)-7,8-dihydro-[1,3]dioxolo[4,5-g]isoquinolin-5(6H)-one]: the GI50 was more than 1000 nM.
